The target in the assay is T1, hVR1 (Homo sapiens, UniProt Q8NER1).
T1 construct: expressed in transfected cells; host or cells: HEK293
The assay can be described thus: Human VR1 (hVR1) Functional Assay (FLIPR intracellular calcium, capsaicin challenge). It counts as cell-based. To be noted: capsaicin 0.030 μM, HEK293 cells expressing hVR1; for inhibition at 1 µM: test concentration 1 μM. (In general: Calcium flux is commonly read through the fluorescence of an indicator in the cells.)

T1 sequence (Q8NER1 whole entry): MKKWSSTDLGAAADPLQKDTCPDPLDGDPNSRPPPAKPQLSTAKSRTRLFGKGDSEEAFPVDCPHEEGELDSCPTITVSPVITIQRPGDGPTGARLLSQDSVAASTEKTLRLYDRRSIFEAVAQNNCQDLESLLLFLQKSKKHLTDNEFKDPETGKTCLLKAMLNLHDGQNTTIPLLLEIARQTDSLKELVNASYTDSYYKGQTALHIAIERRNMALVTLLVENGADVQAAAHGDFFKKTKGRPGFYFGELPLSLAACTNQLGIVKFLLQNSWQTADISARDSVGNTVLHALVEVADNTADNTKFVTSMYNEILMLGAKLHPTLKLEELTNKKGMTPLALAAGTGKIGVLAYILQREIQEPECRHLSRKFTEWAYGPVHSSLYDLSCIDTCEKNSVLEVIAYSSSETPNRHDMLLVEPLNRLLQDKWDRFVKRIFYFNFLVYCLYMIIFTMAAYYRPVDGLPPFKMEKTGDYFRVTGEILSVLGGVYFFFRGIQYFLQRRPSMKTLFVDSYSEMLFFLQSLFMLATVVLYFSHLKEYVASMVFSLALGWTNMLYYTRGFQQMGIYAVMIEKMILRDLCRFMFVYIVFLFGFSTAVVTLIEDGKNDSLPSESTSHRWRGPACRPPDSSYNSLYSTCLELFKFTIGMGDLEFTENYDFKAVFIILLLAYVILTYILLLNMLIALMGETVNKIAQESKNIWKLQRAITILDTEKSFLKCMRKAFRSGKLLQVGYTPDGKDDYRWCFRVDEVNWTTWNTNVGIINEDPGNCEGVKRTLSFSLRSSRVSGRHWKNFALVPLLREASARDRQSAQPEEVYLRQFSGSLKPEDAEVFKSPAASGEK

For the compound `NS(=O)(=O)c1ccccc1-c1ccc2[nH]c([C@H]3C[C@@H]3c3ccc(C(F)(F)F)cc3)nc2c1` [Cpd 504, 2-{2-[(1S,2S)-2-(4-trifluoromethyl-phenyl)-cyclopropyl]-1H-benzimidazol-5-yl}-benzenesulfonamide], the 50% inhibitory concentration (IC50) (usually the concentration that inhibits the measured activity by half) stood at 22 nM and the inhibition (in general, the relative decrease from the control value, in per cent) at 1 µM was 95%. For the compound `Cc1cccc(-c2ccc3[nH]c(CCCc4ccc(C(C)(C)C)cc4)nc3c2)c1` [Cpd 30, 2-[3-(4-tert-butyl-phenyl)-propyl]-5-m-tolyl-1H-benzimidazole], the inhibition at 1 µM came to 10%.

For `NS(=O)(=O)c1ccccc1-c1ccc2[nH]c(/C=C/c3ccc(Br)cc3)nc2c1` [Cpd 363, (E)-2-{2-[2-(4-bromo-phenyl)-vinyl]-1H-benzimidazol-5-yl}-benzenesulfonamide], the IC50 worked out at 12 nM and the inhibition at 1 µM is 98%. `CNS(=O)(=O)c1ccccc1-c1ccc2[nH]c(/C=C/c3ccc(NC(C)=O)cc3)nc2c1` [Cpd 452, (E)-N-(4-{2-[5-(2-methylsulfamoyl-phenyl)-1H-benzimidazol-2-yl]-vinyl}-phenyl)-acetamide]: the inhibition at 1 µM turned out to be 5%. For the compound `CS(=O)(=O)c1cc(Cl)ccc1/C=C/c1nc2cc(-c3ccccc3S(N)(=O)=O)ccc2[nH]1` [Cpd 375, (E)-2-{2-[2-(4-chloro-2-methanesulfonyl-phenyl)-vinyl]-1H-benzimidazol-5-yl}-benzenesulfonamide], the IC50 is 139 nM and the inhibition at 1 µM came to 97%. Taken in the same sequence, the figures for `CNS(=O)(=O)c1ccccc1-c1ccc2[nH]c(/C=C/c3cc(F)cc(F)c3)nc2c1` [Cpd 328, (E)-2-{2-[2-(3,5-difluoro-phenyl)-vinyl]-1H-benzimidazol-5-yl}-N-methyl-benzenesulfonamide] were 35 nM and 99%.

`CC(C)(C)c1ccc(CCc2nc3cc(-c4cccc(O)c4)ccc3[nH]2)cc1` [Cpd 33, 3-{2-[2-(4-tert-butyl-phenyl)-ethyl]-1H-benzimidazol-5-yl}-phenol]: the IC50 amounted to 1700 nM. Turning to `CC(C)(O)c1ccccc1-c1ccc2[nH]c(/C=C/c3ccccc3C(F)(F)F)nc2c1` [Cpd 482, (E)-2-(2-{2-[2-(2-trifluoromethyl-phenyl)-vinyl]-1H-benzimidazol-5-yl}-phenyl)-propan-2-ol], the concentration for half-maximal inhibition (IC50) came to 13 nM and the inhibition at 1 µM was 100%. Take `CNS(=O)(=O)c1ccccc1-c1ccc2[nH]c(/C=C/c3ccc(S(C)(=O)=O)cc3)nc2c1` [Cpd 351, (E)-2-{2-[2-(4-methanesulfonyl-phenyl)-vinyl]-1H-benzimidazol-5-yl}-N-methyl-benzenesulfonamide]: the IC50 is > 500 nM. On to `CNS(=O)(=O)c1ccccc1-c1ccc2[nH]c(/C=C/c3ccc(F)c(C(F)(F)F)c3)nc2c1` [Cpd 331, (E)-2-{2-[2-(4-fluoro-3-trifluoromethyl-phenyl)-vinyl]-1H-benzimidazol-5-yl}-N-methyl-benzenesulfonamide], for which the IC50 was determined as 43 nM and the inhibition at 1 µM is 97%. Taken in the same sequence, the figures for `CN(C)S(=O)(=O)c1ccccc1-c1ccc2[nH]c(CCc3ccc(C(F)(F)F)cc3)nc2c1` [Cpd 399, N,N-dimethyl-2-{2-[2-(4-trifluoromethyl-phenyl)-ethyl]-1H-benzimidazol-5-yl}-benzenesulfonamide] were 3 nM and 97%. Taken in the same sequence, the figures for `CS(=O)(=O)Nc1ccccc1-c1ccc2[nH]c(/C=C/c3cc(F)cc(C(F)(F)F)c3)nc2c1` [Cpd 411, (E)-N-(2-{2-[2-(3-fluoro-5-trifluoromethyl-phenyl)-vinyl]-1H-benzimidazol-5-yl}-phenyl)-methanesulfonamide] were 350 nM and 85%. Taken in the same sequence, the figures for `CN(C)c1ccc(/C=C/c2nc3cc(-c4ccccc4NS(C)(=O)=O)ccc3[nH]2)cc1` [Cpd 413, (E)-N-(2-{2-[2-(4-dimethylamino-phenyl)-vinyl]-1H-benzimidazol-5-yl}-phenyl)-methanesulfonamide] were 240 nM and 82%. On to `CC(C)(O)c1ccccc1-c1ccc2[nH]c(/C=C/c3ccc(S(C)(=O)=O)cc3)nc2c1` [Cpd 84, (E)-2-(2-{2-[2-(4-methanesulfonyl-phenyl)-vinyl]-1H-benzimidazol-5-yl}-phenyl)-propan-2-ol], for which the IC50 was 40 nM and the inhibition at 1 µM was 100%.

In the case of `CC(C)(C)c1ccc(CCc2nc3cc(-c4ccc(O)cc4)ccc3[nH]2)cc1` [Cpd 34, 4-{2-[2-(4-tert-butyl-phenyl)-ethyl]-1H-benzimidazol-5-yl}-phenol], where the note is “test concentration 5 μM (footnote 1)”, the inhibition at 5 µM is 75%. As for `CS(=O)(=O)Nc1ccccc1-c1ccc2[nH]c(/C=C/c3ccc(C(F)(F)F)cc3F)nc2c1` [Cpd 418, (E)-N-(2-{2-[2-(2-fluoro-4-trifluoromethyl-phenyl)-vinyl]-1H-benzimidazol-5-yl}-phenyl)-methanesulfonamide], the IC50 came to 18 nM and the inhibition at 1 µM was determined as 100%.

Turning to `CC(C)(C)c1ccc(/C=C/c2nc3cc(-c4ccccc4F)c(C(F)(F)F)cc3[nH]2)cc1` [Cpd 52, (E)-2-[2-(4-tert-butyl-phenyl)-vinyl]-5-(2-fluoro-phenyl)-6-trifluoromethyl-1H-benzimidazole], the inhibition at 1 µM stood at 28%. Regarding `NS(=O)(=O)c1ccccc1-c1ccc2[nH]c(CCc3cc(F)cc(F)c3)nc2c1` [Cpd 396, 2-{2-[2-(3,5-difluoro-phenyl)-ethyl]-1H-benzimidazol-5-yl}-benzenesulfonamide], the IC50 came out at 13 nM and the inhibition at 1 µM came out at 99%. As to `NS(=O)(=O)c1ccccc1-c1ccc2[nH]c(/C=C/c3ccc(F)c(F)c3)nc2c1` [Cpd 358, (E)-2-{2-[2-(3,4-difluoro-phenyl)-vinyl]-1H-benzimidazol-5-yl}-benzenesulfonamide], the 50% inhibitory concentration (IC50) amounted to 9 nM and the inhibition at 1 µM was determined as 99%. Taken in the same sequence, the figures for `CNS(=O)(=O)c1ccccc1-c1ccc2[nH]c(/C=C/c3ccc(C(C)=O)cc3)nc2c1` [Cpd 456, (E)-2-{2-[2-(4-acetyl-phenyl)-vinyl]-1H-benzimidazol-5-yl}-N-methyl-benzenesulfonamide] were 45 nM and 100%.

In the case of `NS(=O)(=O)c1ccccc1-c1ccc2[nH]c(CCc3ccc(F)c(F)c3F)nc2c1` [Cpd 384, 2-{2-[2-(2,3,4-trifluoro-phenyl)-ethyl]-1H-benzimidazol-5-yl}-benzenesulfonamide], the IC50 stood at 7 nM and the inhibition at 1 µM worked out at 98%. Taken in the same sequence, the figures for `NS(=O)(=O)c1ccccc1-c1ccc2[nH]c(/C=C/c3ccc(Cl)cc3F)nc2c1` [Cpd 428, (E)-2-{2-[2-(4-chloro-2-fluoro-phenyl)-vinyl]-1H-benzimidazol-5-yl}-benzenesulfonamide] were 7 nM and 100%. Taken in the same sequence, the figures for `NS(=O)(=O)c1ccccc1-c1ccc2[nH]c(/C=C/c3cc(F)cc(C(F)(F)F)c3)nc2c1` [Cpd 436, (E)-2-{2-[2-(3-fluoro-5-trifluoromethyl-phenyl)-vinyl]-1H-benzimidazol-5-yl}-benzenesulfonamide] were 10 nM and 96%.

On to `Oc1cccc(-c2cc3nc(/C=C/c4ccc(C(F)(F)F)cc4)[nH]c3cc2F)c1` [Cpd 60, (E)-3-{6-fluoro-2-[2-(4-trifluoromethyl-phenyl)-vinyl]-1H-benzimidazol-5-yl}-phenol], for which the inhibition at 1 µM came out at 7%. With `CNS(=O)(=O)c1ccccc1-c1ccc2[nH]c(/C=C/c3ccc(Cl)cc3)nc2c1` [Cpd 347, (E)-2-{2-[2-(4-chloro-phenyl)-vinyl]-1H-benzimidazol-5-yl}-N-methyl-benzenesulfonamide], the half-maximal inhibitory concentration (IC50) was 44 nM and the inhibition at 1 µM was determined as 100%. Taken in the same sequence, the figures for `CC(C)c1ccc(CCc2nc3cc(-c4ccccc4S(N)(=O)=O)ccc3[nH]2)cc1` [Cpd 442, 2-{2-[2-(4-isopropyl-phenyl)-ethyl]-1H-benzimidazol-5-yl}-benzenesulfonamide] were 4 nM and 96%. Taken in the same sequence, the figures for `CNS(=O)(=O)c1ccccc1-c1ccc2[nH]c(CCc3cccc(C(F)(F)F)c3)nc2c1` [Cpd 350, N-methyl-2-{2-[2-(3-trifluoromethyl-phenyl)-ethyl]-1H-benzimidazol-5-yl}-benzenesulfonamide] were 33 nM and 100%. Take `CC(C)(C)NS(=O)(=O)c1ccccc1-c1ccc2[nH]c(C3CC3c3ccc(C(F)(F)F)cc3)nc2c1` (centres unmarked) [Cpd 499, N-tert-butyl-2-{2-[2-(4-trifluoromethyl-phenyl)-cyclopropyl]-1H-benzimidazol-5-yl}-benzenesulfonamide]: the inhibition at 1 µM is 7%. Turning to `NC(=O)c1ccccc1-c1ccc2[nH]c(C3CC3c3ccc(C(F)(F)F)cc3)nc2c1` (centres unmarked) [Cpd 498, 2-{2-[2-(4-trifluoromethyl-phenyl)-cyclopropyl]-1H-benzimidazol-5-yl}-benzamide], the IC50 worked out at 19 nM and the inhibition at 1 µM was found to be 100%. Taken in the same sequence, the figures for `CC(C)(C)OC(=O)Nc1ccccc1-c1ccc2[nH]c(/C=C/c3ccc(C(C)(C)C)cc3)nc2c1` [Cpd 10, (E)-(2-{2-[2-(4-tert-butyl-phenyl)-vinyl]-1H-benzimidazol-5-yl}-phenyl)-carbamic acid tert-butyl ester] were 280 nM and 94%. Taken in the same sequence, the figures for `NS(=O)(=O)c1ccccc1-c1ccc2[nH]c(/C=C/c3c(F)cccc3Cl)nc2c1` [Cpd 438, (E)-2-{2-[2-(2-chloro-6-fluoro-phenyl)-vinyl]-1H-benzimidazol-5-yl}-benzenesulfonamide] were 71 nM and 96%. `NS(=O)(=O)c1ccccc1-c1ccc2[nH]c(/C=C/c3ccc4ccccc4c3)nc2c1` [Cpd 433, (E)-2-[2-(2-naphthalen-2-yl-vinyl)-1H-benzimidazol-5-yl]-benzenesulfonamide]: the IC50 worked out at 10 nM and the inhibition at 1 µM was 98%.

Source of the values: US7951829B2, “Benzimidazole modulators of VR1” (Janssen Pharmaceutica NV, priority 2006, dated 2011).
